From PubChem BioAssay AID504898 (Southern Research Specialized Biocontainment Screening …, 2011)
Calls of active or inactive are those of the source. No rule for the calls is given here.

Assays:
[1] = Mycobacterium tuberculosis H37Rv growth inhibition, glycerol free medium, confirmatory dose response (AID 504898); details: M. tuberculosis H37Rv growth inhibition, glycerol-free medium; at 100 µM (top of the series)
[2] = test system: M. tuberculosis H37Rv growth inhibition, glycerol-free medium; assay: as above; details: for IC50: measured here: M. tuberculosis growth IC50

Structure (SMILES)	growth inhibition [1]	IC90 [2] [nM]	IC50 [2] [nM]
CN1CCC(NC(=O)CSc2nc3ccccc3c(=O)[nH]2)CC1	-4% (inactive)		
Cc1cc(C)n2nc(N)c(N=Nc3ccccc3)c2n1		5840	4250
NC[C@H]1O[C@H](O[C@H]2[C@H](O)[C@@H](O[C@H]3O[C@H](CO)[C@@H](O)[C@H](N)[C@H]3O)[C@H](N)C[C@@H]2N)[C@H](O)[C@@H](O)[C@@H]1O		2420	1790
Nc1c(C(=O)NC2CCCCC2)nsc1C(=O)OCC(=O)NC1CCCCC1		52600	6560
COc1cccc(NC(=O)CSc2nc3c(c(=O)[nH]2)CCC3)c1	-9.1% (inactive)		
NNC(=O)c1ccncc1		460	310
c1ccc(/N=C2\N=C(Nc3ccccn3)c3ccccc32)nc1		2520	1780
COC(=O)C(C)Oc1ccc(Cc2ncc(C(F)(F)F)cc2Cl)cc1 (stereo not given)		5620	3630
CCC(Sc1nc2ccccc2c(=O)[nH]1)C(=O)Nc1cccc(OC)c1 (stereo not given)	-0.61% (inactive)		
Cc1cc(=O)[nH]c(=S)[nH]1	-2.75% (inactive)		
Cc1ccc(NC(=O)COC(=O)CCc2c[nH]c3ccccc23)cc1[N+](=O)[O-]		8510	2340
Cc1[nH]c2ccccc2c1C(=O)COC(=O)c1ccc([N+](=O)[O-])s1			> 67100
CN[C@@H]1[C@H](O[C@H]2[C@H](O[C@H]3[C@H](O)[C@@H](O)[C@H](N=C(N)N)[C@@H](O)[C@@H]3N=C(N)N)O[C@@H](C)[C@]2(O)C=O)O[C@@H](CO)[C@H](O)[C@H]1O		180	126
CCOC(=O)CSc1nc(C)c(C)c(=O)[nH]1	-0.94% (inactive)		
CCOC1OC(=O)C(Cl)=C1Nc1ccccc1C (stereo not given)		5980	2980
COc1c(N2CCNC(C)C2)c(F)cc2c(=O)c(C(=O)O)cn(C3CC3)c12 (stereo not given)		140	109
COc1cccc(NC(=O)CSc2nc3ccccc3c(=O)[nH]2)c1	-2.5% (inactive)		
Cc1nc(SCC(=O)NCCC(C)C)[nH]c(=O)c1C		13600	9380
O=C(CSc1nc2c(c(=O)[nH]1)CCCC2)NC1CCCCC1		< 110	< 57
CCC(Sc1nc2ccccc2c(=O)[nH]1)C(=O)NC1CCCCC1 (stereo not given)	-0.87% (inactive)		
Cc1[nH]c(=S)[nH]c(=O)c1C	-2.88% (inactive)		
Cc1cc(Br)ccc1NC(=O)c1cnc(N2CCN(c3ccccn3)CC2)c2ccccc12			4320
CC[N+](C)(CC)CCCCOc1ccc2c(c1)C(=O)c1cc(OCCCC[N+](C)(CC)CC)ccc1-2		2800	1920

Structure (SMILES)	growth inhibition [1]	IC90 [2] [nM]	IC50 [2] [nM]
O=c1[nH]c(SCc2ccccc2Cl)nc2c1CCCC2	0.45% (inactive)		
O=C(CSc1nc2ccccc2c(=O)[nH]1)NCc1ccc(Cl)cc1		1600	1090
O=C(CSc1nc2c(c(=O)[nH]1)CCC2)NC1CCCCC1		< 100	< 65
CCOc1ccc(-c2cc(C)[n+](CCc3ccc(OC)c(OC)c3)c(-c3ccc(OCC)cc3)c2)cc1		1450	720
COC(=O)C(Nc1nc(SCC(=O)NC2CCCCC2)nc2ccccc12)c1ccccc1 (stereo not given)	-4.58% (inactive)		
Cc1cnc(SCC(=O)NC2CCCCC2)[nH]c1=O	-3.1% (inactive)		
O=C(CSc1nccc(=O)[nH]1)NC1CCCCC1	-5.34% (inactive)		
O=c1[nH]c(=S)[nH]c2ccccc12	-2.86% (inactive)		
CCC(Sc1nc2c(c(=O)[nH]1)CCC2)C(=O)Nc1cccc(OC)c1 (stereo not given)	-0.59% (inactive)		
Cc1nc(SCc2ccccc2Cl)[nH]c(=O)c1C	-0.81% (inactive)		
COc1ccc(NC(=O)CSc2nc3ccccc3c(=O)[nH]2)cc1	1.8% (inactive)		
CC1CCN(C(=O)CSc2nc3ccccc3c(=O)[nH]2)CC1	-0.8% (inactive)		
CC(C)CCNC(=O)CSc1nc2c(c(=O)[nH]1)CCC2		2020	1370
CCSc1nc(C)c(C)c(=O)[nH]1	3.43% (inactive)		
CCCc1cc(C(N)=S)ccn1			9610
CNC(=O)CSc1nc2ccccc2c(=O)[nH]1			78200
Nc1cc(=O)[nH]c(SCC(=O)NC2CCCCC2)n1	0.56% (inactive)		
O=C(CSc1nc2ccccc2c(=O)[nH]1)NC1CCCC1		630	270
CC(Sc1nc2ccccc2c(=O)[nH]1)C(=O)NC1CCCCC1 (stereo not given)	-1.37% (inactive)		
CC1CCN(C(=O)C2CCN(c3nnc(-n4cccc4)s3)CC2)CC1		6190	3030
Cc1nc(SCC(=O)NC2CCCCC2)[nH]c(=O)c1C		9530	130
CN(C(=O)CSc1nc2ccccc2c(=O)[nH]1)C1CCCCC1	2.63% (inactive)		
CC(C)N=c1cc2n(-c3ccc(Cl)cc3)c3ccccc3nc-2cc1Nc1ccc(Cl)cc1		360	67

Structure (SMILES)	growth inhibition [1]	IC90 [2] [nM]	IC50 [2] [nM]
Cn1c(SCC(=O)NC2CCCCC2)nc2ccccc2c1=O	-3.28% (inactive)		
CCSc1nc2ccccc2c(=O)[nH]1	-0.83% (inactive)		
O=C(CSc1nc2ccccc2c(=O)[nH]1)N1CCOCC1	3.26% (inactive)		
Cc1ccc(NC(=O)CSc2nc3ccccc3c(=O)[nH]2)cc1Cl	-2.52% (inactive)		
NC(=O)CSc1nc2ccccc2c(=O)[nH]1	3.58% (inactive)		
Cc1cc(=O)[nH]c(SCC(=O)NC2CCCCC2)n1	-3.3% (inactive)		
Cc1nc(SCC(=O)N(C)c2ccccc2)[nH]c(=O)c1C	-9.33% (inactive)		
Cc1c[nH]c(=S)[nH]c1=O	-1.93% (inactive)		
COC(=O)c1ccc(CNc2c(N3CCCC3)c(=O)c2=O)cc1	0.74% (inactive)		
Cc1ccc(C(=O)N/N=C(/CC(=O)c2cccs2)C(F)(F)F)cc1		2900	1710
CC(C)NC(=O)CSc1nc2ccccc2c(=O)[nH]1		15000	9870
Cc1nc(SCC(N)=O)[nH]c(=O)c1C	3% (inactive)		
CN(C)C(=O)CSc1nc2ccccc2c(=O)[nH]1	4.4% (inactive)		
NC(=O)c1cnccn1	3.35% (inactive)		
Cc1nc(SCC(=O)NC2CCCC2)[nH]c(=O)c1C		13800	9450
CC(C)CCNC(=O)CSc1nc2ccccc2c(=O)[nH]1		280	< 110
Cc1cccc(-c2oc3ccc(-c4ccc5c(c4)OCO5)cc3c2C#Cc2cncn2C)c1		3020	2610
O=C(CSc1ccccn1)NC1CCCCC1	13.4% (inactive)		
Cc1cccc(/C=C/C(=O)c2ccc([N+](=O)[O-])o2)c1		2230	1490
O=C(CSc1nc2ccccc2c(=O)[nH]1)NC1CCCCC1		510	360
O=C(CSc1ncccn1)NC1CCCCC1	-3.37% (inactive)		
